Tests used:
[1] = system: graft vs. host disease (GVHD); experiment: Murine bone marrow transplantation, donor inoculum treated in vitro: survival and GVHD; assay type: in vivo, B6→B6D2F1 mice
Method: Female, 8-16-wk-old, C57BL/6J (B6) and (C57BL/6J x DBA/2J)F1 mice (B6D2F1) were used as donors and recipients, respectively. For some experiments B6 donors were […] 70×10^6 cells/ml either in phosphate-buffered saline (PBS) or in Leu-Leu-OMe dissolved in PBS. Leu-Leu-OMe was synthesized from leucyl-leucine as previously described (10). After a 15 min incubation at room temperature, the cells were washed once, suspended in Hanks' balanced salt solution, counted, and infused via a lateral tail vein into irradiated (950 cGy) F1 recipients.
Survival times were measured from the day of transplantation to the day of death. Deaths occurring within 8 d of transplantation were considered to be the result of radiation-induced gastroenteritis and were excluded. The nonparametric Mann-Whitney test was used to determine whether the median survival times (MST) differed between groups (14).
Organs of recipient mice were fixed in 10% buffered formalin. Sections were stained with Hematoxylin and Eosin.

[2] = target: dipeptidyl peptidase I (DPPI) (Bos taurus, UniProt Q3ZCJ8); experiment: Dipeptidyl peptidase I catalyzed lysis of human RBC; assay type: cell-based, bovine; conditions: FIG. 12, FIG. 13
dipeptidyl peptidase I (DPPI), sequence (Q3ZCJ8 231-394 limits assumed): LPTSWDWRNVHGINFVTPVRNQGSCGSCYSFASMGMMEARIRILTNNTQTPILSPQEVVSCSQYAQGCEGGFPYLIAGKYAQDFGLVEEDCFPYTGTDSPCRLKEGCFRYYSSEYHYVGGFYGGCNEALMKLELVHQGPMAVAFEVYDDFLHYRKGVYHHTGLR
dipeptidyl peptidase I (DPPI), sequence (Q3ZCJ8 25-134 limits assumed): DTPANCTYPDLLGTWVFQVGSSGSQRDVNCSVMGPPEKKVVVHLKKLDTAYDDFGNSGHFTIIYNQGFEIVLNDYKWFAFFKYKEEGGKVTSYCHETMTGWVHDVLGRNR
dipeptidyl peptidase I (DPPI), sequence (Q3ZCJ8 395-463 limits assumed): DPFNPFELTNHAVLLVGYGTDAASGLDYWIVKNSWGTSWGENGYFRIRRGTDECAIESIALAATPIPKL
Method: The following experiments were carried out to determine whether DPPI could generate a lytic product from Leu-Leu-OMe. In the experiment detailed in FIG. 12, ^51 Cr-labeled human erythrocytes (RBC) were incubated with varying concentrations of Leu-Leu-OMe alone or in the presence of purified bovine DPPI.
In the experiments detailed in FIG. 13, ^51 Cr-labeled RBC's were exposed to various dipeptide esters or amides in the presence or absence of purified DPPI. […] The first observation is probably related to the inability of this enzyme to catalyze transpeptidation of peptide esters containing D-stereoisomers of amino acids. The latter observations are likely to be related to the fact that polymers of Ser-Leu or Leu-Tyr are not hydrophobic and therefore unlikely to enter and disrupt cell membranes.

human dermal fibroblasts = experiment: 51Cr release toxicity assay
Method: In some experiments, toxicity of Leu-Leu-OMe for a variety of cell populations was assessed by ^51 Cr release In assays where cells obtained from suspension culture were to be used, cells were labeled with Na2^51 CrO4 (ICN, Plainview, N.Y.) for 60-90 minutes at 37° C. and then washed three times. Cells were then suspended in PBS (2.5×10^6 /ml) and incubated in microtiter plates, 50 microL/well with indicated concentrations of Leu-Leu-OMe for 15 minutes at room temperature. […] Following ^51 Cr labeling, wells were thoroughly washed and varying concentrations of Leu-Leu-OMe added in 50 microL PBS and the plates incubated for 15 minutes at room temperature.
Following such initial serum-free incubations, 200 microL/well of medium RPMI containing 10% FBS were added and the plates incubated for another 4 hours prior to removal of 100 microliters of supernatant. Radioactivity in the supernatant was measured in an auto-gamma scintillation spectrometer (Packard Instrument Co., Downers Grove, Ill.). The percent specific release was calculated from the formula: [formula] in which maximal release refers to cpm obtained in wells containing 50% lysing agent (American Scientific Products, McGraw Park, Ill.) and spontaneous release refers to cpm released by cells incubated in control medium in the absence of Leu-Leu-OMe or the lysing agent.

Structure (SMILES): COC(=O)[C@H](CC(C)C)NC(=O)[C@@H](N)CC(C)C [Leu-Leu-OMe, L-leucyl-L-leucine methyl ester]
- GVHD-mediated tissue injury ([1]; 25×10^6 cells treated with 250 micro-M): had no evidence of cutaneous GVHD
- GVHD-mediated tissue injury ([1]; 25×10^6 donor cells treated with 125 micro-M): manifested evidence of acute GVHD, although at somewhat diminished intensity
- GVHD-mediated tissue injury ([1]; 50×10^6 treated cells): manifested acute cutaneous GVHD
- mice surviving >90 d (long-term survivors) ([1]; immune donors, 37×10^6 donor cells treated with 250 micro-M): three of nine
- median survival time (MST) ([1]; immune donors, 37×10^6 donor cells treated with 250 micro-M, untreated 11 d): 49 days
- median survival time (MST) ([1]; naive donors, 25×10^6 donor cells treated with 125 micro-M, untreated 19 d): 41.5 days
- survival of all recipients ([1]; naive donors, 25×10^6 donor cells treated with 250 micro-M, untreated MST 19 d): > 120 days
- survival of all recipients ([1]; naive donors, 50×10^6 donor cells treated with 250 micro-M, untreated MST 14 d): > 200 days
- RBC lysis in the presence of purified DPPI, in words [2]: RBC lysis occurs
- 51Cr release (human dermal fibroblasts): no significant Leu-Leu-OMe induced ^51 Cr release
- subsequent proliferative capacity (human dermal fibroblasts; 500 micromolar): had no discernible effect on subsequent proliferative capacity

Source: patent US5304474A, “Hydrophobic peptide esters and amides” (Board of Regents, The University of Texas System, priority 1991, dated 1994)
